Assays:
[1] = target: cloned human P2Y1 receptors (Homo sapiens (Human), UniProt P47900); assay: Binding Assay B - Scintillation Proximity Assay (SPA) for P2Y1 binding, [33P] 2MeS-ADP; details: SPA, 0.3 nM [33P] 2MeS-ADP, Cheng-Prusoff; read-out: P2Y1 Ki (nM) using binding assay B
Protocol: Binding Assay B—Scintillation Proximity Assay (SPA) for P2Y1 Binding
A SPA membrane binding assay was used to identify inhibitors of [^33P] […] Reactions were allowed to proceed to completion at room temperature for 1 hour followed by centrifugation of the plate for 5 min. About 40 μL of the aqueous solution was aspirated. Plates were sealed and the [^33P]

[2] = test system: human platelet rich plasma (PRP); assay: ADP induced platelet aggregation assay; details: Homo sapiens, Platelet, 5 min, read-out: PA IC50 (μM) @ 10 μM ADP, human PRP, 10 μM ADP, AUC at 5 minute
Protocol: The ability of P2Y1 antagonists covered in the present invention to inhibit platelet aggregation induced by 10 μM ADP was tested using human platelet rich plasma (PRP) as described in Platelet Protocols: Research and Clinical Laboratory Procedures (White, M. M. et al., Academic Press (1999)). Human blood was collected in 30 μM (final concentration in blood) argatroban (GSK) as the anticoagulant at a ratio of 1 mL per 9 mL of blood. The PRP was isolated by centrifugation at 170 g for 12 minutes. The platelet poor plasma (PPP) was used as the blank for optical aggregometry. Compounds of the present invention in DMSO solution was preincubated with 250 μL PRP at 37° C. for 1 minute with stirring speed of 1000 rpm. Aggregation was initiated by addition of 2.5 μL of 1 mM ADP (Chrono-log, Havertown, Pa.) for a final ADP concentration of 10 μM. Platelet aggregation was monitored using Optical Aggregometer (Chrono-log, Havertown, Pa.) and the area under the curve (AUC) at 5 minute was measured. IC50 was calculated using vehicle control as 0% inhibition.

Sequence of cloned human P2Y1 receptors (P47900 whole entry): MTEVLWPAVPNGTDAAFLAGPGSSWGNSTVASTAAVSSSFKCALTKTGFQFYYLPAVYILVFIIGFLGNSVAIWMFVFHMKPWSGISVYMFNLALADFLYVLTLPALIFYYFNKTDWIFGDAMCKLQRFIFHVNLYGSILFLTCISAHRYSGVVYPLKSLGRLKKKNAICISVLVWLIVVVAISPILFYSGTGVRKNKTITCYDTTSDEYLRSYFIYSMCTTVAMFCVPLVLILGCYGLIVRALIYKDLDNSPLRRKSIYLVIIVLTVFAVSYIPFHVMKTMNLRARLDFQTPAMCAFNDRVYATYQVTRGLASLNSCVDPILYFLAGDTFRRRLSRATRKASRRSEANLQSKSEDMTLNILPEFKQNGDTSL

SMILES: CC(C)Cn1cc(-c2c(F)cc(O)c3c2C(C)(C)CN3c2ccccc2NC(=O)Nc2ccc(OC(F)(F)F)cc2)cn1 [Example 184, 1-(2-(5-Fluoro-7-hydroxy-4-(1-isobutyl-1H-pyrazol-4-yl)-3,3-dimethylindolin-1-yl)phenyl)-3-(4-(trifluoromethoxy)phenyl)urea]
- Ki [1]: 10.7 nM
- IC50 [2]: 0.26 µM

SMILES: CC(C)CCn1cc(-c2c(F)cc(O)c3c2C(C)(C)CN3c2ccccc2NC(=O)Nc2ccc(OC(F)(F)F)cc2)cn1 [Example 185, 1-(2-(5-Fluoro-7-hydroxy-4-(1-isopentyl-1H-pyrazol-4-yl)-3,3-dimethylindolin-1-yl)phenyl)-3-(4-(trifluoromethoxy)phenyl)urea]
- Ki [1]: 13.3 nM
- IC50 [2]: 0.16 µM

SMILES: Cc1c(-c2c(F)cc(O)c3c2C(C)(C)CN3c2ccccc2NC(=O)Nc2ccc(OC(F)(F)F)cc2)cnn1-c1ccccc1 [Example 186, 1-(2-(5-Fluoro-7-hydroxy-3,3-dimethyl-4-(5-methyl-1-phenyl-1H-pyrazol-4-yl)indolin-1-yl)phenyl)-3-(4-(trifluoromethoxy)phenyl)urea]
- Ki [1]: 17.6 nM
- IC50 [2]: 0.67 µM

SMILES: Cc1nn(C)c(C)c1-c1c(F)cc(O)c2c1C(C)(C)CN2c1ccccc1NC(=O)Nc1ccc(OC(F)(F)F)cc1 [Example 187, 1-(2-(5-Fluoro-7-hydroxy-3,3-dimethyl-4-(1,3,5-trimethyl-1H-pyrazol-4-yl)indolin-1-yl)phenyl)-3-(4-(trifluoromethoxy)phenyl)urea]
- Ki [1]: 19.2 nM
- IC50 [2]: 1.07 µM

SMILES: CC1(C)CN(c2ccccc2NC(=O)Nc2ccc(OC(F)(F)F)cc2)c2c(O)cc(F)c(-c3ccc(F)nc3)c21 [Example 188, 1-(2-(5-Fluoro-4-(6-fluoropyridin-3-yl)-7-hydroxy-3,3-dimethylindolin-1-yl)phenyl)-3-(4-(trifluoromethoxy)phenyl)urea]
- Ki [1]: 4.7 nM
- IC50 [2]: 0.38 µM

SMILES: CSc1ncc(-c2c(F)cc(O)c3c2C(C)(C)CN3c2ccccc2NC(=O)Nc2ccc(OC(F)(F)F)cc2)cn1 [Example 189, 1-(2-(5-Fluoro-7-hydroxy-3,3-dimethyl-4-(2-(methylthio)pyrimidin-5-yl)indolin-1-yl)phenyl)-3-(4-(trifluoromethoxy)phenyl)urea]
- Ki [1]: 7.2 nM
- IC50 [2]: 0.25 µM

SMILES: CC1(C)CN(c2ccccc2NC(=O)Nc2ccc(OC(F)(F)F)cc2)c2c(O)cc(F)c(-c3ccnc(F)c3)c21 [Example 190, 1-(2-(5-Fluoro-4-(2-fluoropyridin-4-yl)-7-hydroxy-3,3-dimethylindolin-1-yl)phenyl)-3-(4-(trifluoromethoxy)phenyl)urea]
- Ki [1]: 10.6 nM
- IC50 [2]: 0.48 µM

SMILES: Cc1cc(-c2c(F)cc(O)c3c2C(C)(C)CN3c2ccccc2NC(=O)Nc2ccc(OC(F)(F)F)cc2)ccn1 [Example 191, 1-(2-(5-Fluoro-7-hydroxy-3,3-dimethyl-4-(2-methylpyridin-4-yl)indolin-1-yl)phenyl)-3-(4-(trifluoromethoxy)phenyl)urea]
- Ki [1]: 12.3 nM
- IC50 [2]: 0.19 µM

SMILES: Cc1cc(-c2c(F)cc(O)c3c2C(C)(C)CN3c2ccccc2NC(=O)Nc2ccc(OC(F)(F)F)cc2)cnc1F [Example 192, 1-(2-(5-Fluoro-4-(6-fluoro-5-methylpyridin-3-yl)-7-hydroxy-3,3-dimethylindolin-1-yl)phenyl)-3-(4-(trifluoromethoxy)phenyl)urea]
- Ki [1]: 8.8 nM
- IC50 [2]: 0.26 µM

SMILES: CC1(C)CN(c2ccccc2NC(=O)Nc2ccc(OC(F)(F)F)cc2)c2c(O)ccc(-c3ccc(F)cc3)c21 [Example 193, 1-(2-(4-(4-Fluorophenyl)-7-hydroxy-3,3-dimethylindolin-1-yl)phenyl)-3-(4-(trifluoromethoxy)phenyl)urea]
- Ki [1]: 6.9 nM
- IC50 [2]: 0.12 µM

SMILES: CC1(C)CN(c2ccccc2NC(=O)Nc2ccc(OC(F)(F)F)cc2)c2c(O)cc(F)c(-c3ccc(F)cc3)c21 [Example 194, 1-(2-(5-Fluoro-4-(4-fluorophenyl)-7-hydroxy-3,3-dimethylindolin-1-yl)phenyl)-3-(4-(trifluoromethoxy)phenyl)urea]
- Ki [1]: 6.7 nM
- IC50 [2]: 0.26 µM

SMILES: CC1(C)CN(c2ccccc2NC(=O)Nc2ccc(OC(F)(F)F)cc2)c2c(O)ccc(-c3ccccc3)c21 [Example 195, 1-(2-(7-Hydroxy-3,3-dimethyl-4-phenylindolin-1-yl)phenyl)-3-(4-(trifluoromethoxy)phenyl)urea]
- Ki [1]: 9 nM
- IC50 [2]: 0.18 µM

SMILES: CC1(C)CN(c2ccccc2NC(=O)Nc2ccc(OC(F)(F)F)cc2)c2c(O)ccc(-c3ccc(C(F)(F)F)cc3)c21 [Example 196, 1-(2-(7-Hydroxy-3,3-dimethyl 4-(4-(trifluoromethyl)phenyl)indolin-1-yl)phenyl)-3-(4-(trifluoromethoxy)phenyl)urea]
- Ki [1]: 8 nM
- IC50 [2]: 0.23 µM

SMILES: CC1(C)CN(c2ccccc2NC(=O)Nc2ccc(OC(F)(F)F)cc2)c2c(O)ccc(-c3cc(F)cc(F)c3)c21 [Example 197, 1-(2-(4-(3,5-Difluorophenyl)-7-hydroxy-3,3-dimethylindolin-1-yl)phenyl)-3-(4-(trifluoromethoxy)phenyl)urea]
- Ki [1]: 5.1 nM
- IC50 [2]: 0.18 µM

SMILES: CC1(C)CN(c2ccccc2NC(=O)Nc2csc(Cl)n2)c2c(O)ccc(-c3ccc(F)cc3)c21 [Example 198, 1-(2-Chlorothiazol-4-yl)-3-(2-(4-(4-fluorophenyl)-7-hydroxy-3,3-dimethylindolin-1-yl)phenyl)urea]
- Ki [1]: 4.9 nM
- IC50 [2]: 0.09 µM

SMILES: CC1(C)CN(c2ccccc2NC(=O)Nc2nc3ccc(Cl)cc3s2)c2c(O)ccc(-c3ccc(F)cc3)c21 [Example 199, 1-(6-Chlorobenzo[d]thiazol-2-yl)-3-(2-(4-(4-fluorophenyl)-7-hydroxy-3,3-dimethylindolin-1-yl)phenyl)urea]
- Ki [1]: 10.1 nM
- IC50 [2]: 0.18 µM

SMILES: CC(C)CN1CCCC1c1ccc(NC(=O)Nc2ccccc2N2CC(C)(C)c3c(-c4ccc(F)cc4)ccc(O)c32)cc1 (centres unmarked) [Example 200, 1-(2-(4-(4-Fluorophenyl)-7-hydroxy-3,3-dimethylindolin-1-yl)phenyl)-3-(4-(1-isobutylpyrrolidin-2-yl)phenyl)urea]
- Ki [1]: 4.6 nM
- IC50 [2]: 0.05 µM

SMILES: Cc1nc(NC(=O)Nc2ccccc2N2CC(C)(C)c3c(-c4ccc(F)cc4)ccc(O)c32)cs1 [Example 201, 1-(2-(4-(4-Fluorophenyl)-7-hydroxy-3,3-dimethylindolin-1-yl)phenyl)-3-(2-methylthiazol-4-yl)urea]
- Ki [1]: 5.8 nM
- IC50 [2]: 0.43 µM

SMILES: CC(C)(C)CN1CCCC1c1ccc(NC(=O)Nc2ccccc2N2CC(C)(C)c3c(-c4ccc(F)cc4)ccc(O)c32)cc1 (centres unmarked) [Example 202, 1-(2-(4-(4-Fluorophenyl)-7-hydroxy-3,3-dimethylindolin-1-yl)phenyl)-3-(4-(1-neopentylpyrrolidin-2-yl)phenyl)urea]
- Ki [1]: 5.7 nM
- IC50 [2]: 0.09 µM

SMILES: CC1(C)CN(c2ccccc2NC(=O)Nc2ccc(OC(F)(F)F)cc2)c2c(O)ccc(-c3ccc(F)cc3F)c21 [Example 203, 1-(2-(4-(2,4-Difluorophenyl)-7-hydroxy-3,3-dimethylindolin-1-yl)phenyl)-3-(4-(trifluoromethoxy)phenyl)urea]
- Ki [1]: 8 nM
- IC50 [2]: 0.16 µM

SMILES: CC1(C)CN(c2ccccc2NC(=O)Nc2ccc(OC(F)(F)F)cc2)c2c(O)ccc(-c3ccc(F)c(F)c3)c21 [Example 204, 1-(2-(4-(3,4-Difluorophenyl)-7-hydroxy-3,3-dimethylindolin-1-yl)phenyl)-3-(4-(trifluoromethoxy)phenyl)urea]
- Ki [1]: 7.7 nM
- IC50 [2]: 0.4 µM

SMILES: CC1(C)CN(c2ccccc2NC(=O)Nc2ccc(OC(F)(F)F)cc2)c2c(O)ccc(-c3ccc(Cl)cc3)c21 [Example 205, 1-(2-(4-(4-Chlorophenyl)-7-hydroxy-3,3-dimethylindolin-1-yl)phenyl)-3-(4-(trifluoromethoxy)phenyl)urea]
- Ki [1]: 6.7 nM
- IC50 [2]: 0.14 µM

SMILES: CC1(C)CN(c2ccccc2NC(=O)Nc2ccc(OC(F)(F)F)cc2)c2c(O)ccc(-c3cccc(F)c3)c21 [Example 206, 1-(2-(4-(3-Fluorophenyl)-7-hydroxy-3,3-dimethylindolin-1-yl)phenyl)-3-(4-(trifluoromethoxy)phenyl)urea]
- Ki [1]: 8.5 nM
- IC50 [2]: 0.24 µM

SMILES: CC1(C)CN(c2ccccc2NC(=O)Nc2ccc(OC(F)(F)F)cc2)c2c(O)ccc(-c3ccccc3F)c21 [Example 207, 1-(2-(4-(2-Fluorophenyl)-7-hydroxy-3,3-dimethylindolin-1-yl)phenyl)-3-(4-(trifluoromethoxy)phenyl)urea]
- Ki [1]: 8.7 nM
- IC50 [2]: 0.08 µM

SMILES: CC1(C)CN(c2ccccc2NC(=O)Nc2csc(C(F)(F)F)n2)c2c(O)ccc(-c3ccc(F)cc3)c21 [Example 208, 1-(2-(4-(4-Fluorophenyl)-7-hydroxy-3,3-dimethylindolin-1-yl)phenyl)-3-(2-(trifluoromethyl)thiazol-4-yl)urea]
- Ki [1]: 11.4 nM
- IC50 [2]: 0.25 µM

SMILES: CC1(C)CN(c2ccccc2NC(=O)Nc2nc3ccc(Cl)nc3s2)c2c(O)ccc(-c3ccc(F)cc3)c21 [Example 209, 1-(5-Chlorothiazolo[5,4-b]pyridin-2-yl)-3-(2-(4-(4-fluorophenyl)-7-hydroxy-3,3-dimethylindolin-1-yl)phenyl)urea]
- Ki [1]: 13 nM
- IC50 [2]: 0.23 µM

SMILES: CC1(C)CN(c2ccccc2NC(=O)Nc2nc3ccc(F)cc3s2)c2c(O)ccc(-c3ccc(F)cc3)c21 [Example 210, 1-(6-Fluorobenzo[d]thiazol-2-yl)-3-(2-(4-(4-fluorophenyl)-7-hydroxy-3,3-dimethylindolin-1-yl)phenyl)urea]
- Ki [1]: 12.4 nM
- IC50 [2]: 0.08 µM

SMILES: CC(C)CN1CCC(c2ccc(NC(=O)Nc3ccccc3N3CC(C)(C)c4c(-c5ccc(F)cc5)ccc(O)c43)cc2)CC1 [Example 211, 1-(2-(4-(4-Fluorophenyl)-7-hydroxy-3,3-dimethylindolin-1-yl)phenyl)-3-(4-(1-isobutylpiperidin-4-yl)phenyl)urea]
- Ki [1]: 27.1 nM
- IC50 [2]: 0.46 µM
